Usually melting point stands for the temperature, or range, at which the solid turns liquid.

Series [1] deals with human neutrophils. The series is described as follows: Cytotoxic test: lactate dehydrogenase (LDH) release from human neutrophils. It is filed as cell-based. How it is done: FIGS. 1(a)-1(b) show the influences of HCH6-1 on releasing lactate dehydrogenase (LDH) from human neutrophils under the following experimental conditions. The suspension of neutrophils was reacted with different concentrations of candidate compounds for 15 min, or fixed concentrations of candidate compounds for various times. Also, 0.1% Triton X-100 was added to react for 30 min as a release amount of total lactate dehydrogenase (Total LDH), wherein the supernatant was subjected to centrifugation for 8 min, at 200 g and at 4° C., and then a lactate dehydrogenase reagent was added and kept in the dark and at room temperature for 30 min, and an absorbance at 492 nm was monitored. Results are measured based on Total LDH as 100%.

Series [2] deals with T1, formyl peptide receptor 1 (FPR1) (Homo sapiens, UniProt P21462).
T1 construct: the effect of FNLFNYK combined with FPR1 on the membranes of human neutrophils; endogenous in cells; host or cells: human neutrophils
T1 sequence (P21462 1-350): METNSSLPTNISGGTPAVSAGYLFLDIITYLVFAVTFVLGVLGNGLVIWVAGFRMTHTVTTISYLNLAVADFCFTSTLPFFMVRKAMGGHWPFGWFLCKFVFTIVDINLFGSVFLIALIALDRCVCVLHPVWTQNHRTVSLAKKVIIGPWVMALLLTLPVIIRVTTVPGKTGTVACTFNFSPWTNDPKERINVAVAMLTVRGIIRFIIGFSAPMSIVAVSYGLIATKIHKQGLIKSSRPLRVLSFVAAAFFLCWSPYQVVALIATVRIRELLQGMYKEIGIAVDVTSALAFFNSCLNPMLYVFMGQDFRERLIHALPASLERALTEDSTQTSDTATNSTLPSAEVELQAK
Briefly: Receptor test: competition with fluorescent FNLFNYK for binding to FPR1 on human neutrophils. As to conditions: membranes of human neutrophils; read-out: inhibition of FNLFNYK bound to FPR1, IC50. An excerpt:
Membranes of human neutrophils contain fMLF receptor, formyl peptide receptor 1 (FPR1), with which formyl-NIe-Leu-Phe-NIe-Tyr-Lys (FNLFNYK) carrying the fluorescence property was combined with FPR1 and competed with the candidate compound for receptor binding. Therefore, by binding with the receptor, it was possible to further clarify whether the compound interacts with the receptor.

Series [3] has as its system human neutrophils. The series is described as follows: Expression of CD11b on the cell surface of activated neutrophils (flow cytometry). It is filed as cell-based. The method, then:
The suspension of neutrophils was mixed at 37° C. and pre-heated for 5 min, and then compounds with different concentrations for measurements were added. […] And the reaction termination is done by on-ice setting. The supernatant was removed after centrifugation, and make the cells suspension again in the balanced salt solution containing bovine serum albumin (BSA). Anti-CD11b with fluorescein isothiocyanate (FITC) labeling was added, and kept on ice and in the dark. Finally, a balanced salt solution was added to terminate the reaction. By means of the flow cytometer for detecting the anti-CD11b with fluorescein isothiocyanate (FITC) labeling, it is possible to further evaluate whether the candidate compounds had influence on CD11b expression on the cell membranes of activated neutrophils according to changes in fluorescence. […].

In series [4] the test system is MAPKs (ERK, p38 and JNK) and Akt. The series is described as follows: Western blot: phosphorylation of MAPKs (ERK, p38, JNK) and Akt in fMLF-stimulated neutrophils. In kind it is cell-based, human. As to conditions: HCH6-1 10 μM pre-processed 5 min; fMLF 3 nM, 30 sec. An excerpt:
Mitogen-activated protein kinases (MAPKs) and the expression of Akt phosphorylation are closely related to the regulation of cell inflammatory response. By specific binding of antibodies, each compound's influence on protein expression activated by different signals was observed. As to neutrophils, MAPKs (ERIK, p38, and JNK) and Akt signal transduction pathways are involved in the regulation of superoxide anion generation and elastase release. It is can be seen from the above-mentioned experiments that HCH6-1 is capable of competitively inhibiting superoxide anion generation and elastase release. Whether downstream MAPKs and Akt signal transduction pathways of FPR1 were involved in the regulation of superoxide anion generation and elastase release is explored below.
The experimental conditions were as follows. HCH6-1 (10 μM) was pre-processed for 5 min, followed by stimulus of fMLF (3-30 nM) for 30 sec.

In series [5] the test system is human neutrophils. Briefly: cells. It is filed as cell-based. As to conditions: Neutrophil, mean ± SEM. The method, then:
Degranulation of azurophilic granules was determined by elastase release as described above. Experiments were performed using MeO-Suc-[…]-nitroanilide as the elastase substrate. […] Results are expressed as the percentage of elastase release in the drug-free control group, DMSO. Tables 5 and 6 explore whether there is an anti-inflamatory effect in the dipeptide derivatives. Because ferricytochrome c cannot penetrate cell membranes, it reacts with superoxide anion extracellularly. Also, there are absorptive reactions at 550 nm, and differences among the absorptive reactions can be used to evaluate the influence on the release of superoxide anion. The elastase is released by degranulation as the neutrophil is activated. Tables 5 and 6 use the substrate, MeO-Suc-[…]-nitroanilide, with the specificity for reacting with the elastase so as to evaluate the influence of the candidate compound on the elastase release. Blood was taken from healthy human donors (20-32 years old) by venipuncture, following a protocol approved by the Institutional Review Board at Chang Gung Memorial Hospital. Neutrophils were isolated by a standard method of dextran sedimentation prior to centrifugation in a Ficoll Hypaque gradient and the hypotonic lysis of erythrocytes. […] The degranulation of azurophilic granules was determined by elastase release as described above. Experiments were performed using MeO-Suc-[…]-nitroanilide as the elastase substrate. Briefly, after supplementation with MeO-Suc-[…]-nitroanilide ([…] neutrophils (6×10^5 ml^-1) were equilibrated at 37° C. for 2 min and incubated with drugs for 5 min. […] The results are expressed as the percentage of elastase release in the drug-free control group.

Structures are written as SMILES. Square brackets hold non-standard residues; d marks the D form. Peptide text beside a SMILES is read from it. * marks the point of attachment. Bz = O=C(c1ccccc1)*

Regarding `COC(=O)[C@@H](Cc1ccccc1)NC(=O)[C@H](Cc1c[nH]c2ccccc12)NC(=O)c1ccccc1` [Compound 3, N—(N-Benzoyl-L-tryptophanyl)-D-phenylalanine methyl ester] (Bz-Trp-[dF]-OMe), the melting point was in the range of 174 to 176 °C. Moreover, the “toxicity to cells (LDH release) during a long period” value in series [1] (HCH6-1 30 μM, 120 min, FIG. 1(b)) is given as “no significant toxicity”. Also, the “toxicity to neutrophils (LDH release)” value in series [1] (different concentrations, 15 min, FIG. 1(a)) is “not the results of toxicity to the neutrophils”. The IC50 in series [2] worked out at 2020 ± 340 nM. For the same compound, in series [3] (Homo sapiens, Neutrophil, stimulus of fMLF (30 nM)/CB, read-out: inhibition of CD11b expression on cell membranes, IC50), the IC50 stood at 260 ± 50 nM. Moreover, the “inhibition of CD11b expression on cell membranes” value in series [3] (stimulus of IL-8 (100 nM), FIG. 2(n)) is given as “no inhibitory effects”. Besides, in series [3] (stimulus of MMK1, FIG. 2(h)), the “inhibition of CD11b expression on cell membranes” value is “no inhibitory effects”. Also, the “phosphorylation for MAPKs (ERK, p38 and JNK) and Akt” value in series [4] is “significantly suppressed phosphorylation”. The IC50 in series [5] (WKYMVm, n = 4 or 8, Table 6, read-out: Elastase release WKYMVm IC50) stood at 5220 ± 700 nM. The IC50 in series [5] (WKYMVm/CB, n = 3, Table 4, read-out: WKYMVm/CB NE release (IC50)) was 4610 ± 720 nM. The IC50 in series [5] (fMLF, n = 4 or 8, Table 6, read-out: Elastase release fMLF IC50) came to 570 ± 70 nM. Moreover, in series [5] (fMLF/CB, n = 3, Table 4, read-out: fMLF/CB NE release (IC50)), the IC50 turned out to be 600 ± 70 nM. The IC50 in series [5] (fMLP/CB, n = 3, Table 1, read-out: Anti-inflammation NE release (IC50)) was 600 ± 70 nM.

Source of the values: patent US9593144B2, “FPR1 antagonist derivatives and use thereof” (CHANG GUNG UNIVERSITY, priority 2014, dated 2017).
